tested on: NL-RLuc virus; assay: Inhibition of HIV replication (NL-RLuc reporter virus in MT-2 cells, luciferase readout); assay type: cell-based; conditions: Human immunodeficiency virus 1, MT2, 120 h, read-out: Activity
Outline: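 MT-2 cells infected with NL4-3-derived NL-RLuc reporter virus (Renilla luciferase replacing part of nef) with serial compound dilutions, RPMI 1640 + 10% FBS; 5 days. Growth by luciferase; EC50 from median effect equation, ≥2 experiments.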

Row | SMILES | EC50 [µM]
1 | COc1cc(F)c(CN2CCc3cc(-c4c(C)nc(C)c([C@H](OC(C)(C)C)C(=O)O)c4N4CCC(C)(C)CC4)ccc3C2)c(F)c1 [Compound 106, (S)-2-(tert-butoxy)-2-(5-(2-(2,6-difluoro-4-methoxybenzyl)-1,2,3,4-tetrahydroisoquinolin-6-yl)-4-(4,4-dimethylpiperidin-1-yl)-2,6-dimethylpyridin-3-yl)acetic acid] | < 0.1
2 | COc1cc(F)cc(F)c1CN1CCc2cc(-c3c(C)nc(C)c([C@H](OC(C)(C)C)C(=O)O)c3N3CCC(C)(C)CC3)ccc2C1 [Compound 107, (S)-2-(tert-butoxy)-2-(5-(2-(2,4-difluoro-6-methoxybenzyl)-1,2,3,4-tetrahydroisoquinolin-6-yl)-4-(4,4-dimethylpiperidin-1-yl)-2,6-dimethylpyridin-3-yl)acetic acid] | < 0.1
3 | Cc1nc(C)c([C@H](OC(C)(C)C)C(=O)O)c(N2CCC(C)(C)CC2)c1-c1ccc2c(c1)CCN(Cc1ccc(OC(F)(F)F)c(F)c1)C2 [Compound 108, (S)-2-(tert-butoxy)-2-(4-(4,4-dimethylpiperidin-1-yl)-5-(2-(3-fluoro-4-(trifluoromethoxy)benzyl)-1,2,3,4-tetrahydroisoquinolin-6-yl)-2,6-dimethylpyridin-3-yl)acetic acid] | < 0.1
4 | COc1cc(C(F)(F)F)ccc1CN1CCc2cc(-c3c(C)nc(C)c([C@H](OC(C)(C)C)C(=O)O)c3N3CCC(C)(C)CC3)ccc2C1 [Compound 109, (S)-2-(tert-butoxy)-2-(4-(4,4-dimethylpiperidin-1-yl)-5-(2-(2-methoxy-4-(trifluoromethyl)benzyl)-1,2,3,4-tetrahydroisoquinolin-6-yl)-2,6-dimethylpyridin-3-yl)acetic acid] | < 0.1
5 | Cc1nc(C)c([C@H](OC(C)(C)C)C(=O)O)c(N2CCC(C)(C)CC2)c1-c1ccc2c(c1)CCN(Cc1cccc(OC(F)(F)F)c1)C2 [Compound 110, (S)-2-(tert-butoxy)-2-(4-(4,4-dimethylpiperidin-1-yl)-2,6-dimethyl-5-(2-(3-(trifluoromethoxy)benzyl)-1,2,3,4-tetrahydroisoquinolin-6-yl)pyridin-3-yl)acetic acid] | < 0.1
6 | Cc1nc(C)c([C@H](OC(C)(C)C)C(=O)O)c(N2CCC(C)(C)CC2)c1-c1ccc2c(c1)CCN(Cc1cc(F)cc(OC(F)(F)F)c1)C2 [Compound 111, (S)-2-(tert-butoxy)-2-(4-(4,4-dimethylpiperidin-1-yl)-5-(2-(3-fluoro-5-(trifluoromethoxy)benzyl)-1,2,3,4-tetrahydroisoquinolin-6-yl)-2,6-dimethylpyridin-3-yl)acetic acid] | < 0.1
7 | COc1cc(CN2CCc3cc(-c4c(C)nc(C)c([C@H](OC(C)(C)C)C(=O)O)c4N4CCC(C)(C)CC4)ccc3C2)cc(C(F)(F)F)c1 [Compound 112, (S)-2-(tert-butoxy)-2-(4-(4,4-dimethylpiperidin-1-yl)-5-(2-(3-methoxy-5-(trifluoromethyl)benzyl)-1,2,3,4-tetrahydroisoquinolin-6-yl)-2,6-dimethylpyridin-3-yl)acetic acid] | < 0.1
8 | Cc1nc(C)c([C@H](OC(C)(C)C)C(=O)O)c(N2CCC(C)(C)CC2)c1-c1ccc2c(c1)CCN(Cc1cc(Cl)cc(OC(F)(F)F)c1)C2 [Compound 113, (S)-2-(tert-butoxy)-2-(5-(2-(3-chloro-5-(trifluoromethoxy)benzyl)-1,2,3,4-tetrahydroisoquinolin-6-yl)-4-(4,4-dimethylpiperidin-1-yl)-2,6-dimethylpyridin-3-yl)acetic acid] | < 0.1
9 | Cc1nc(C)c([C@H](OC(C)(C)C)C(=O)O)c(N2CCC(C)(C)CC2)c1-c1ccc2c(c1)CCN(Cc1ccccc1OC(F)F)C2 [Compound 114, (S)-2-(tert-butoxy)-2-(5-(2-(2-(difluoromethoxy)benzyl)-1,2,3,4-tetrahydroisoquinolin-6-yl)-4-(4,4-dimethylpiperidin-1-yl)-2,6-dimethylpyridin-3-yl)acetic acid] | < 0.1
10 | COc1cccc(F)c1CN1CCc2cc(-c3c(C)nc(C)c([C@H](OC(C)(C)C)C(=O)O)c3N3CCC(C)(C)CC3)ccc2C1 [Compound 115, (S)-2-(tert-butoxy)-2-(4-(4,4-dimethylpiperidin-1-yl)-5-(2-(2-fluoro-6-methoxybenzyl)-1,2,3,4-tetrahydroisoquinolin-6-yl)-2,6-dimethylpyridin-3-yl)acetic acid] | < 0.1
11 | COc1ccc(F)c(CN2CCc3cc(-c4c(C)nc(C)c([C@H](OC(C)(C)C)C(=O)O)c4N4CCC(C)(C)CC4)ccc3C2)c1 [Compound 116, (S)-2-(tert-butoxy)-2-(4-(4,4-dimethylpiperidin-1-yl)-5-(2-(2-fluoro-5-methoxybenzyl)-1,2,3,4-tetrahydroisoquinolin-6-yl)-2,6-dimethylpyridin-3-yl)acetic acid] | < 0.1
12 | COc1cc(F)ccc1CN1CCc2cc(-c3c(C)nc(C)c([C@H](OC(C)(C)C)C(=O)O)c3N3CCC(C)(C)CC3)ccc2C1 [Compound 117, (S)-2-(tert-butoxy)-2-(4-(4,4-dimethylpiperidin-1-yl)-5-(2-(4-fluoro-2-methoxybenzyl)-1,2,3,4-tetrahydroisoquinolin-6-yl)-2,6-dimethylpyridin-3-yl)acetic acid] | < 0.1
13 | Cc1nc(C)c([C@H](OC(C)(C)C)C(=O)O)c(N2CCC(C)(C)CC2)c1-c1ccc2c(c1)CCN(Cc1cccc(OC(F)F)c1)C2 [Compound 118, (S)-2-(tert-butoxy)-2-(5-(2-(3-(difluoromethoxy)benzyl)-1,2,3,4-tetrahydroisoquinolin-6-yl)-4-(4,4-dimethylpiperidin-1-yl)-2,6-dimethylpyridin-3-yl)acetic acid] | < 0.1
14 | COc1ccc(C)cc1CN1CCc2cc(-c3c(C)nc(C)c([C@H](OC(C)(C)C)C(=O)O)c3N3CCC(C)(C)CC3)ccc2C1 [Compound 119, (S)-2-(tert-butoxy)-2-(4-(4,4-dimethylpiperidin-1-yl)-5-(2-(2-methoxy-5-methylbenzyl)-1,2,3,4-tetrahydroisoquinolin-6-yl)-2,6-dimethylpyridin-3-yl)acetic acid] | < 0.1
15 | Cc1nc(C)c([C@H](OC(C)(C)C)C(=O)O)c(N2CCC(C)(C)CC2)c1-c1ccc2c(c1)CCN(Cc1ccc(F)c(OC(F)(F)F)c1)C2 [Compound 120, (S)-2-(tert-butoxy)-2-(4-(4,4-dimethylpiperidin-1-yl)-5-(2-(4-fluoro-3-(trifluoromethoxy)benzyl)-1,2,3,4-tetrahydroisoquinolin-6-yl)-2,6-dimethylpyridin-3-yl)acetic acid] | < 0.1
16 | Cc1nc(C)c([C@H](OC(C)(C)C)C(=O)O)c(N2CCC(C)(C)CC2)c1-c1ccc2c(c1)CCN(Cc1cccc(OC(F)(F)C(F)F)c1)C2 [Compound 121, (S)-2-(tert-butoxy)-2-(4-(4,4-dimethylpiperidin-1-yl)-2,6-dimethyl-5-(2-(3-(1,1,2,2-tetrafluoroethoxy)benzyl)-1,2,3,4-tetrahydroisoquinolin-6-yl)pyridin-3-yl)acetic acid] | < 0.1
17 | COc1cc(F)cc(CN2CCc3cc(-c4c(C)nc(C)c([C@H](OC(C)(C)C)C(=O)O)c4N4CCC(C)(C)CC4)ccc3C2)c1 [Compound 122, (S)-2-(tert-butoxy)-2-(4-(4,4-dimethylpiperidin-1-yl)-5-(2-(3-fluoro-5-methoxybenzyl)-1,2,3,4-tetrahydroisoquinolin-6-yl)-2,6-dimethylpyridin-3-yl)acetic acid] | < 0.1
18 | Cc1nc(C)c([C@H](OC(C)(C)C)C(=O)O)c(N2CCC(C)(C)CC2)c1-c1ccc2c(c1)CCN(Cc1ccccc1OC(F)(F)F)C2 [Compound 123, (S)-2-(tert-butoxy)-2-(4-(4,4-dimethylpiperidin-1-yl)-2,6-dimethyl-5-(2-(2-(trifluoromethoxy)benzyl)-1,2,3,4-tetrahydroisoquinolin-6-yl)pyridin-3-yl)acetic acid] | < 0.1
19 | COc1ccc(F)cc1CN1CCc2cc(-c3c(C)nc(C)c([C@H](OC(C)(C)C)C(=O)O)c3N3CCC(C)(C)CC3)ccc2C1 [Compound 124, (S)-2-(tert-butoxy)-2-(4-(4,4-dimethylpiperidin-1-yl)-5-(2-(5-fluoro-2-methoxybenzyl)-1,2,3,4-tetrahydroisoquinolin-6-yl)-2,6-dimethylpyridin-3-yl)acetic acid] | < 0.1
20 | Cc1nc(C)c([C@H](OC(C)(C)C)C(=O)O)c(N2CCC(C)(C)CC2)c1-c1ccc2c(c1)CCN(Cc1ccc(OC(F)(F)C(F)F)cc1)C2 [Compound 125, (S)-2-(tert-butoxy)-2-(4-(4,4-dimethylpiperidin-1-yl)-2,6-dimethyl-5-(2-(4-(1,1,2,2-tetrafluoroethoxy)benzyl)-1,2,3,4-tetrahydroisoquinolin-6-yl)pyridin-3-yl)acetic acid] | < 0.1
21 | CCOc1cc(CN2CCc3cc(-c4c(C)nc(C)c([C@H](OC(C)(C)C)C(=O)O)c4N4CCC(C)(C)CC4)ccc3C2)c(F)cc1F [Compound 126, (S)-2-(tert-butoxy)-2-(4-(4,4-dimethylpiperidin-1-yl)-5-(2-(5-ethoxy-2,4-difluorobenzyl)-1,2,3,4-tetrahydroisoquinolin-6-yl)-2,6-dimethylpyridin-3-yl)acetic acid] | < 0.1
22 | Cc1nc(C)c([C@H](OC(C)(C)C)C(=O)O)c(N2CCC(C)(C)CC2)c1-c1ccc2c(c1)CCN(Cc1ccc(Cl)c(Cl)c1)C2 [Compound 127, (S)-2-(tert-butoxy)-2-(5-(2-(3,4-dichlorobenzyl)-1,2,3,4-tetrahydroisoquinolin-6-yl)-4-(4,4-dimethylpiperidin-1-yl)-2,6-dimethylpyridin-3-yl)acetic acid] | < 0.1
23 | Cc1nc(C)c([C@H](OC(C)(C)C)C(=O)O)c(N2CCC(C)(C)CC2)c1-c1ccc2c(c1)CCN(Cc1c(Cl)cccc1Cl)C2 [Compound 128, (S)-2-(tert-butoxy)-2-(5-(2-(2,6-dichlorobenzyl)-1,2,3,4-tetrahydroisoquinolin-6-yl)-4-(4,4-dimethylpiperidin-1-yl)-2,6-dimethylpyridin-3-yl)acetic acid] | < 0.1

same assay, conditions: Human immunodeficiency virus 1, MT2, 120 h, read-out: EC50 μM

Row | SMILES | EC50 [µM]
24 | Cc1nc(C)c([C@H](OC(C)(C)C)C(=O)O)c(N2CCC(C)(C)CC2)c1-c1ccc2c(c1)CCN(Cc1cccc(OC(F)(F)F)c1)C2 [Compound 110, (S)-2-(tert-butoxy)-2-(4-(4,4-dimethylpiperidin-1-yl)-2,6-dimethyl-5-(2-(3-(trifluoromethoxy)benzyl)-1,2,3,4-tetrahydroisoquinolin-6-yl)pyridin-3-yl)acetic acid] | 0.008
25 | COc1ccc(F)c(CN2CCc3cc(-c4c(C)nc(C)c([C@H](OC(C)(C)C)C(=O)O)c4N4CCC(C)(C)CC4)ccc3C2)c1 [Compound 116, (S)-2-(tert-butoxy)-2-(4-(4,4-dimethylpiperidin-1-yl)-5-(2-(2-fluoro-5-methoxybenzyl)-1,2,3,4-tetrahydroisoquinolin-6-yl)-2,6-dimethylpyridin-3-yl)acetic acid] | 0.002
26 | Cc1nc(C)c([C@H](OC(C)(C)C)C(=O)O)c(N2CCC(C)(C)CC2)c1-c1ccc2c(c1)CCN(Cc1ccccc1OC(F)(F)F)C2 [Compound 123, (S)-2-(tert-butoxy)-2-(4-(4,4-dimethylpiperidin-1-yl)-2,6-dimethyl-5-(2-(2-(trifluoromethoxy)benzyl)-1,2,3,4-tetrahydroisoquinolin-6-yl)pyridin-3-yl)acetic acid] | 0.011
